Data on 22 compounds can be found in ChEMBL document CHEMBL4118084, “Chemical Approaches to Intervening in Ubiquitin Specific Protease 7 (USP7) Function for Oncology and Immune Oncology Therapies” (J Med Chem, 2018).

In assay [1] the target is T1, Ubiquitin carboxyl-terminal hydrolase 7 (Homo sapiens, UniProt Q93009). The experiment in a line: Inhibition of full-length recombinant USP7 (unknown origin) expressed in Sf9 cells using Ub-EKL as substrate preincubated for 30 mins followed by substrate addition by fluorescence based assay.
T1 sequence (Q93009 whole entry): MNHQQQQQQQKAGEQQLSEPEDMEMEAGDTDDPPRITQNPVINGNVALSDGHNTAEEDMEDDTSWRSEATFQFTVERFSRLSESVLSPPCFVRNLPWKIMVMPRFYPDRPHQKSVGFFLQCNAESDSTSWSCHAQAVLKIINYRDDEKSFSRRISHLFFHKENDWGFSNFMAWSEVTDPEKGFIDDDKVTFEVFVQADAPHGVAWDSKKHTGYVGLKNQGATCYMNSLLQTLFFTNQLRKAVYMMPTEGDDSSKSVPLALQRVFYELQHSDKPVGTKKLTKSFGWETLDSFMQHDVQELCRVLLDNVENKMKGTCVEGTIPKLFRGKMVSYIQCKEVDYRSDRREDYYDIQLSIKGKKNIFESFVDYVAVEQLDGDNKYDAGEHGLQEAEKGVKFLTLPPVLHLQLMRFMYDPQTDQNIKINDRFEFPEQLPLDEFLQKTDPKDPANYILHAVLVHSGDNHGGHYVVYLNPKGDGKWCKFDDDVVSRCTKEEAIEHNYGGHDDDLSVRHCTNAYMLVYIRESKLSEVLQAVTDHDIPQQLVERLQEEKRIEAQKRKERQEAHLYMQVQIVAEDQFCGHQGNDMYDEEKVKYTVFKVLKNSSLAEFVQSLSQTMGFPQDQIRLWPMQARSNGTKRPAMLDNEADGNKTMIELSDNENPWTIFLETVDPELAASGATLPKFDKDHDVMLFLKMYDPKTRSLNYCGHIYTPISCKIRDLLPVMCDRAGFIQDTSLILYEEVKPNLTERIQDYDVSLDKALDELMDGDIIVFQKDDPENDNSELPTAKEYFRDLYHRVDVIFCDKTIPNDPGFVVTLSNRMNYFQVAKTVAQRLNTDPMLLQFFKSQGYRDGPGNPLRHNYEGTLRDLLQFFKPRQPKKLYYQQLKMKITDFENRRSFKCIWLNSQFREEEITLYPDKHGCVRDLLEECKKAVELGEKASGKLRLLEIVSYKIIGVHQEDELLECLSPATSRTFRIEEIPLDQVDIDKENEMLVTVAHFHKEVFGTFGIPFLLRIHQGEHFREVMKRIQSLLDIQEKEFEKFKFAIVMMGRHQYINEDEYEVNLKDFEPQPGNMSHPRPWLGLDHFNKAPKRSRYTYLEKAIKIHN
Assay [2] deals with Ubiquitin carboxyl-terminal hydrolase 7 (Homo sapiens, UniProt Q93009, C223A). Put plainly: Inhibition of human full-length wild-type His-tagged catalytic USP7 […] expressed in baculovirus infected Sf9 cells using Ub-AMC as substrate preincubated for 30 mins followed by substrate addition measured after 1 hrs by fluorometric analysis.
Chain of Ubiquitin carboxyl-terminal hydrolase 7 (Homo sapiens, UniProt Q93009, C223A) (Q93009 whole entry C223A): as the sequence (Q93009 whole entry) above, with C223A counted along it
In assay [3] the target is T1, Ubiquitin carboxyl-terminal hydrolase 7. Put plainly: Inhibition of USP7 (unknown origin) using human N-terminal GST-tagged UBA52 as substrate preincubated for 10 mins followed by substrate addition measured after 45 mins by coomassie brilliant blue staining-based SDS-PAGE analysis.
For assay [4] the target is unchanged. The experiment in a line: Inhibition of USP7 (unknown origin) using Ub-Rh110 as substrate by fluorescence based assay.
For assay [5] the target is unchanged. The experiment in a line: Inhibition of USP7 (unknown origin).
Assay [6] shares this target. The experiment in a line: Inhibition of human recombinant 6His-tagged USP7 using Ub-Rh110 as substrate preincubated for 30 mins followed by substrate addition measured after 180 mins by fluorometric analysis.
Assay [7] can be described thus: Inhibition of mouse CD4+/CD25+ Treg cells-mediated suppression of CD3-stimulated T-effector cell proliferation after 72 hrs by CellTrace violet dye-based assay. Format: functional.
The target in assay [8] is T1, Ubiquitin carboxyl-terminal hydrolase 7. The experiment in a line: Inhibition of USP7 in human SJSA cells assessed as increase in ubiquitinated MDM2 level after 20 hrs in presence of MG132 by MSD assay. The format is cell-based.
For assay [9] the target is unchanged. The experiment in a line: Inhibition of full-length native C-terminal USP7 (unknown origin) using Ub-Rho110 as substrate after 1 hr by fluorescence assay.
In assay [10] the target is T2, Ubiquitin carboxyl-terminal hydrolase 2 (Homo sapiens, UniProt O75604).
T2 sequence (O75604 whole entry): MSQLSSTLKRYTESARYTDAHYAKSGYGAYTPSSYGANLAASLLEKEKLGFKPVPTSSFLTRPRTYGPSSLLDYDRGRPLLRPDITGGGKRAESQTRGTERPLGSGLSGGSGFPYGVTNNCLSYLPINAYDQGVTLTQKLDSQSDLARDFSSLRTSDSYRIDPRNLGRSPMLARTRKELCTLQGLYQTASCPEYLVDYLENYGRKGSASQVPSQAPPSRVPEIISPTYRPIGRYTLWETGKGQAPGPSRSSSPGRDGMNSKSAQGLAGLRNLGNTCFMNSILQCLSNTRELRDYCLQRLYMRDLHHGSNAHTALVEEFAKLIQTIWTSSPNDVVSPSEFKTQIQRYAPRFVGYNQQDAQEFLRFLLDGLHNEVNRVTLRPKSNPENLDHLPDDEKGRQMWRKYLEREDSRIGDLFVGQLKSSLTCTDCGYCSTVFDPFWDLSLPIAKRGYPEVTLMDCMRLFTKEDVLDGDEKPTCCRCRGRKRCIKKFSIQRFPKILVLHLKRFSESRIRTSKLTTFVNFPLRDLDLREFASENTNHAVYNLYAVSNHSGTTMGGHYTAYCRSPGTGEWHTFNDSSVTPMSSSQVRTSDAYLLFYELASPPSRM
The experiment in a line: Inhibition of USP2 (unknown origin).

Assay [11] has as its target T3, Ubiquitin carboxyl-terminal hydrolase 47 (Homo sapiens, UniProt Q96K76).
T3 sequence (Q96K76 whole entry): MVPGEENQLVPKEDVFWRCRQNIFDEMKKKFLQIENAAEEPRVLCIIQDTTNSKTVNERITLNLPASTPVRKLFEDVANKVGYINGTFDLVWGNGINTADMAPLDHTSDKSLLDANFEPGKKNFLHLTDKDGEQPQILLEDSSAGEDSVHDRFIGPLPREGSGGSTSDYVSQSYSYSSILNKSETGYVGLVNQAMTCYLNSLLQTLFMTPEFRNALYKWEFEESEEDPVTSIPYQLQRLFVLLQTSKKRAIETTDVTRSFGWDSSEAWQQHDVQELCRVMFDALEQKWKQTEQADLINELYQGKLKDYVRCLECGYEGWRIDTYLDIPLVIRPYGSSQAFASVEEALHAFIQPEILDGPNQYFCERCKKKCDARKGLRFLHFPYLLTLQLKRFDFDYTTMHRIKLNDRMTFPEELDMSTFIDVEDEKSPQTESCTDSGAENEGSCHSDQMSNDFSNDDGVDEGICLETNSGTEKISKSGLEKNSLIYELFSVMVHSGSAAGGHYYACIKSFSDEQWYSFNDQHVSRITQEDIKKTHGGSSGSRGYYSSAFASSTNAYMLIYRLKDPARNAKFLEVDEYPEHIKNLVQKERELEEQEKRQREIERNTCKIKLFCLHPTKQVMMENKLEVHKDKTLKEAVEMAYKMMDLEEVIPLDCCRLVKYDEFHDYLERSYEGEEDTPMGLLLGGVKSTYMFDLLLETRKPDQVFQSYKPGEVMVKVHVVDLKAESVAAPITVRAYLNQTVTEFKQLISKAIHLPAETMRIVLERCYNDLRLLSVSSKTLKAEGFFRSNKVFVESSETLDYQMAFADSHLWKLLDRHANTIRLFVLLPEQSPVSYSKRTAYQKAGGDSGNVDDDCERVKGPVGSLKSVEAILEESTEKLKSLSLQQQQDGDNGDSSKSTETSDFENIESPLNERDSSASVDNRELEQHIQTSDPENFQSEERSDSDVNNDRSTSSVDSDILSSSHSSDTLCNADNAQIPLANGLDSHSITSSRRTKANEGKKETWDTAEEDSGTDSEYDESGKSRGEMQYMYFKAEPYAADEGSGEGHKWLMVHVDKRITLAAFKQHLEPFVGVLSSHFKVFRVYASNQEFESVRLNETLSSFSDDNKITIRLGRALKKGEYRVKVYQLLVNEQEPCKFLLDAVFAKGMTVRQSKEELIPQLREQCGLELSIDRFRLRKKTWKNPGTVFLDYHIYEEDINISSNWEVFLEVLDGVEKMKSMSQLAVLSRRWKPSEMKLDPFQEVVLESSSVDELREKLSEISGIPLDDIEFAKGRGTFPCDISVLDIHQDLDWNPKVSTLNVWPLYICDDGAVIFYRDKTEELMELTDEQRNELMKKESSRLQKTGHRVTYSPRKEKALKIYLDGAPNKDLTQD
The experiment in a line: Inhibition of USP47 (unknown origin) using Ub-AMC as substrate preincubated for 20 mins followed by substrate addition measured after 50 mins.

The target in assay [12] is T1, Ubiquitin carboxyl-terminal hydrolase 7. Put plainly: Inhibition of full-length USP7 (unknown origin) using Ub-AMC as substrate preincubated for 20 mins followed by substrate addition measured after 50 mins.

For `CC(=O)c1cc([N+](=O)[O-])c(Sc2ccccc2)s1`, in assay [1], the IC50 is > 50 µM.

With `CN(CCCNC(=O)c1ccc2nc3c(c(Cl)c2c1)CCCC3)Cc1ccccc1`, the IC50 in assay [2] worked out at 28 µM. As to `COC(=O)[C@]12CCC(C)(C)C[C@H]1[C@H]1C(=O)C=C3[C@@]4(C)CC(C#N)C(=O)C(C)(C)[C@@H]4CC[C@@]3(C)[C@]1(C)CC2` (some centres undefined), in assay [3], the IC50 stood at 25 µM. As for `CC(CC(=O)N1CCC(O)(C(C)n2cnc3c(cnn3C)c2=O)CC1)c1ccccc1` (centres undefined), the half-maximal inhibitory concentration (IC50) in assay [4] is 200 to 1000 nM. `CC1=CS(=O)(=O)c2cc(NC(=O)c3cc([N+](=O)[O-])c(Sc4c(Cl)cncc4Cl)s3)ccc21` gave a half-inhibitory concentration (IC50) in assay [5] of 170 nM.

For `O=C(Nc1ccc2c(c1)S(=O)(=O)CC2)c1cc([N+](=O)[O-])c(Sc2c(Cl)cncc2Cl)s1`, 130 nM corresponded to half-maximal inhibition in [5] (IC50). Consider `C[C@@]12CCCc3coc(c31)C(=O)c1cc3c(=O)c4c(c(=O)c3cc12)c1c(=O)c2cc3c(cc2c(=O)c1c1c(=O)c2cc5c(cc2c(=O)c41)[C@]1(C)CCCc2coc(c21)C5=O)[C@]1(C)CCCc2coc(c21)C3=O`, for which the 50% inhibitory concentration (IC50) in assay [6] is 750 nM.

With `COC(=O)/C=C/CNC(=O)c1cc([N+](=O)[O-])c(Sc2cccc(Cl)c2Cl)s1`, in assay [7], the IC50 amounted to 580 nM.

In assay [4], `CCCc1cc2c(=O)n(C(C)C3(O)CCN(C(=O)CC(C)c4ccccc4)CC3)cnc2s1` (centres undefined) yielded a half-inhibitory concentration (IC50) of 300 to 1000 nM. With `O=C(Nc1cccc(CN2CCCC2)c1)c1ccc2nc3c(c(Cl)c2c1)CCCC3`, the midpoint of inhibition in assay [5], the IC50, lay at 8200 nM.

In turn, `CC1CS(=O)(=O)c2cc(NC(=O)c3cc([N+](=O)[O-])c(Sc4c(Cl)cncc4Cl)s3)ccc21` (centres undefined) displayed an IC50 in assay [5] of 75 nM. In [5], `CC(=O)c1cnc(Sc2c(Cl)cncc2Cl)s1` showed a half-inhibitory concentration (IC50) of 22600 nM. Regarding `CC(CC(=O)N1CCC(O)(C(C)n2cnn3cccc3c2=O)CC1)c1ccccc1` (centres undefined), the half-inhibitory concentration (IC50) in assay [4] was 200 to 1000 nM. Still for that read-out and setting: to `CC(CC(=O)N1CCC(O)(C(C)n2cnc3cc[nH]c3c2=O)CC1)c1ccccc1` (centres undefined) belongs < 500 nM.

Consider `C[C@@]12CCCc3coc(c31)C(=O)c1cc3c(cc12)C(=O)C=C(C1=CC(=O)c2cc4c(cc2C1=O)C(=O)c1occ2c1[C@@]4(C)CCC2)C3=O`, for which the IC50 in [6] was 490 nM. On to `CCc1c(-c2ccc3c(cnn3C)c2)cnc(N)c1-c1ccc(O)cc1`, for which the half-inhibitory concentration (IC50) in assay [8] was 2000 nM; in assay [9] it was > 63.3 µM.

`CN(C)CCCNC1CS(=O)(=O)c2cc(NC(=O)c3cc([N+](=O)[O-])c(Sc4c(Cl)cncc4Cl)s3)ccc21` (centres undefined): the 50% inhibitory concentration (IC50) in assay [5] was 200 nM. `CC(=O)Nc1ccc2c(=O)n(C(C)C3(O)CCN(C(=O)CC(C)c4ccccc4)CC3)cnc2c1` (centres undefined): in assay [4], the IC50 was < 200 nM. Compound `O=C(Nc1ccc2c(c1)S(=O)(=O)C=C2)c1cc([N+](=O)[O-])c(Sc2c(Cl)cncc2Cl)s1` had an IC50 in [5] of 100 nM. Turning to `COC(=O)[C@]12CCC(C)(C)C[C@H]1[C@H]1C(=O)C=C3[C@@]4(C)C=C(C#N)C(=O)C(C)(C)[C@@H]4CC[C@@]3(C)[C@]1(C)CC2` [BARDOXOLONE METHYL], the IC50 in [10] amounted to 22 µM.

For the compound `C[C@H]1[C@H](C)CC[C@]2(C(=O)O)CC[C@]3(C)C(=CC[C@@H]4[C@@]5(C)CC[C@H](O)C(C)(C)[C@@H]5CC[C@]43C)[C@H]12` [URSOLIC ACID], the values for the 50% inhibitory concentration (IC50) in assay [11] and in assay [12] were 26 µM and 7 µM, respectively. `C[C@@]12CCCc3coc(c31)C(=O)c1cc3c(cc12)C(=O)C=CC3=O` [XESTOQUINONE]: in assay [6], the IC50 was 130 nM.

Broadly, the IC50 is the concentration needed to halve the response being measured.
